These compounds were tested on NMNAT2 (assay: NMNAT2-Hibit nano-luciferase activity in transfected U87MG cells, 25 μM, 24 hours). Details: NMNAT2-Hibit luc plasmid, 24 hours (Table B).
Assay type: cell-based
Experimental: Selected compounds were tested in vitro. Briefly, U87MG cells were transfected with NMNAT2-Hibit luc plasmid. Cells were treated with a test compound at 25 μM for 24 hours. Cells were then collected and assayed for nano-luciferase activity.
For `Cc1ccc2onc(CNC(=O)Nc3ccc(F)cc3F)c2c1` [Compound 181042], the “B: compound efficacy (IC50) for NMNAT2 activation; increase in NMNAT2 luciferase activity” value was “+ (“+” <20% increase in NMNAT2 luciferase activity.)”.
With `CN(C(=O)NCc1noc2ccccc12)c1cccc(Cl)c1` [Compound 181013] the “B: compound efficacy (IC50) for NMNAT2 activation; increase in NMNAT2 luciferase activity” value was “+ (“+” <20% increase in NMNAT2 luciferase activity.)”.
`Cc1ccc2onc(CNC(=O)NCc3ccccc3Cl)c2c1` [Compound 181081] was tested, and the “B: compound efficacy (IC50) for NMNAT2 activation; increase in NMNAT2 luciferase activity” value was “+ (“+” <20% increase in NMNAT2 luciferase activity.)”.
In the case of `CC(=O)c1cccc(NC(=O)NCc2noc3ccccc23)c1` [Compound 181031], the “B: compound efficacy (IC50) for NMNAT2 activation; increase in NMNAT2 luciferase activity” value is reported as “+ (“+” <20% increase in NMNAT2 luciferase activity.)”.
`Cc1ccc2onc(CNC(=O)N(C)c3cccc(Cl)c3)c2c1` [Compound 181055] was tested, and the “B: compound efficacy (IC50) for NMNAT2 activation; increase in NMNAT2 luciferase activity” value was “+ (“+” <20% increase in NMNAT2 luciferase activity.)”.
`CCN(C(=O)NCc1noc2ccc(C)cc12)c1cccc(Cl)c1` [Compound 181054] was tested, and the “B: compound efficacy (IC50) for NMNAT2 activation; increase in NMNAT2 luciferase activity” value was “+ (“+” <20% increase in NMNAT2 luciferase activity.)”.
`Cc1ccc2onc(CNC(=O)Nc3ccccc3Cl)c2c1` [Compound 181079] was tested, and the “B: compound efficacy (IC50) for NMNAT2 activation; increase in NMNAT2 luciferase activity” value was “+ (“+” <20% increase in NMNAT2 luciferase activity.)”.
For `Cc1ccc(CNC(=O)NCc2noc3ccccc23)cc1` [Compound 181022], the “B: compound efficacy (IC50) for NMNAT2 activation; increase in NMNAT2 luciferase activity” value was “+ (“+” <20% increase in NMNAT2 luciferase activity.)”.
With `Cc1ccc2onc(CNC(=O)NCc3ccc(Cl)cc3)c2c1` [Compound 181082] the “B: compound efficacy (IC50) for NMNAT2 activation; increase in NMNAT2 luciferase activity” value was “++ (“++” >20% and <100% increase in NMNAT2 luciferase activity.)”.
For `Cc1ccc(C)c(N(C)C(=O)NCc2noc3ccccc23)c1` [Compound 181016], the “B: compound efficacy (IC50) for NMNAT2 activation; increase in NMNAT2 luciferase activity” value was “+ (“+” <20% increase in NMNAT2 luciferase activity.)”.
In the case of `Cc1ccc(NC(=O)NCc2noc3ccc(C)cc23)c(Br)c1` [Compound 181038], the “B: compound efficacy (IC50) for NMNAT2 activation; increase in NMNAT2 luciferase activity” value is reported as “+ (“+” <20% increase in NMNAT2 luciferase activity.)”.
For `Cc1cccc(CCNC(=O)NCc2noc3ccccc23)c1` [Compound 181023], the “B: compound efficacy (IC50) for NMNAT2 activation; increase in NMNAT2 luciferase activity” value was “+ (“+” <20% increase in NMNAT2 luciferase activity.)”.
For `Cc1ccc2onc(CNC(=O)N(C)c3ccccc3Cl)c2c1` [Compound 181057], the “B: compound efficacy (IC50) for NMNAT2 activation; increase in NMNAT2 luciferase activity” value was “+ (“+” <20% increase in NMNAT2 luciferase activity.)”.
For `COc1ccc(NC(=O)NCc2noc3ccc(C)cc23)cc1` [Compound 181078], the “B: compound efficacy (IC50) for NMNAT2 activation; increase in NMNAT2 luciferase activity” value was “+ (“+” <20% increase in NMNAT2 luciferase activity.)”.
In the case of `Cc1ccc(CCNC(=O)NCc2noc3ccc(C)cc23)cc1` [Compound 181083], the “B: compound efficacy (IC50) for NMNAT2 activation; increase in NMNAT2 luciferase activity” value is reported as “++ (“++” >20% and <100% increase in NMNAT2 luciferase activity.)”.
For `CCCCN(C)CCNC(=O)NCc1noc2ccc(C)cc12` [Compound 181070], the “B: compound efficacy (IC50) for NMNAT2 activation; increase in NMNAT2 luciferase activity” value was “+ (“+” <20% increase in NMNAT2 luciferase activity.)”.
`Cc1ccc(N(C)C(=O)NCc2noc3ccccc23)cc1C` [Compound 181014] was tested, and the “B: compound efficacy (IC50) for NMNAT2 activation; increase in NMNAT2 luciferase activity” value was “+ (“+” <20% increase in NMNAT2 luciferase activity.)”.
`CCOc1ccc(CCNC(=O)NCc2noc3ccc(C)cc23)cc1` [Compound 181088] was tested, and the “B: compound efficacy (IC50) for NMNAT2 activation; increase in NMNAT2 luciferase activity” value was “+ (“+” <20% increase in NMNAT2 luciferase activity.)”.
In the case of `O=C(NCc1noc2ccccc12)Nc1ccccc1Cl` [Compound 181027], the “B: compound efficacy (IC50) for NMNAT2 activation; increase in NMNAT2 luciferase activity” value is reported as “+ (“+” <20% increase in NMNAT2 luciferase activity.)”.
`COc1ccc(CNC(=O)NCc2noc3ccccc23)cc1` [Compound 181019] was tested, and the “B: compound efficacy (IC50) for NMNAT2 activation; increase in NMNAT2 luciferase activity” value was “+ (“+” <20% increase in NMNAT2 luciferase activity.)”.
`Cc1ccc(CNC(=O)NCc2noc3ccc(C)cc23)cc1` [Compound 181069] was tested, and the “B: compound efficacy (IC50) for NMNAT2 activation; increase in NMNAT2 luciferase activity” value was “++ (“++” >20% and <100% increase in NMNAT2 luciferase activity.)”.
In the case of `COc1ccccc1CNC(=O)NCc1noc2ccccc12` [Compound 181008], the “B: compound efficacy (IC50) for NMNAT2 activation; increase in NMNAT2 luciferase activity” value is reported as “+ (“+” <20% increase in NMNAT2 luciferase activity.)”.
For `COc1ccc(NC(=O)NCc2noc3ccc(C)cc23)cc1Cl` [Compound 181041], the “B: compound efficacy (IC50) for NMNAT2 activation; increase in NMNAT2 luciferase activity” value was “+ (“+” <20% increase in NMNAT2 luciferase activity.)”.
In the case of `Cc1ccc2onc(CNC(=O)NC3CCCC(C)C3C)c2c1` (centres unmarked) [Compound 181046], the “B: compound efficacy (IC50) for NMNAT2 activation; increase in NMNAT2 luciferase activity” value is reported as “+ (“+” <20% increase in NMNAT2 luciferase activity.)”.
For `COc1ccc(NC(=O)NCc2noc3ccccc23)cc1Cl` [Compound 181006], the “B: compound efficacy (IC50) for NMNAT2 activation; increase in NMNAT2 luciferase activity” value was “+ (“+” <20% increase in NMNAT2 luciferase activity.)”.
`Cc1ccc(NC(=O)NCc2noc3ccccc23)cc1F` [Compound 181004] was tested, and the “B: compound efficacy (IC50) for NMNAT2 activation; increase in NMNAT2 luciferase activity” value was “+ (“+” <20% increase in NMNAT2 luciferase activity.)”.
`O=C(NCc1noc2ccccc12)Nc1cccc(Cl)c1` [Compound 181001] was tested, and the “B: compound efficacy (IC50) for NMNAT2 activation; increase in NMNAT2 luciferase activity” value was “+ (“+” <20% increase in NMNAT2 luciferase activity.)”.
For `Cc1ccc2onc(CNC(=O)NCc3ccccn3)c2c1` [Compound 181050], the “B: compound efficacy (IC50) for NMNAT2 activation; increase in NMNAT2 luciferase activity” value was “+ (“+” <20% increase in NMNAT2 luciferase activity.)”.

Same assay, conditions: NMNAT2-Hibit luc plasmid, 24 hours (Table C)
In the case of `COc1ccc(CNC(=O)Cn2c(C)cc(C)c(C#N)c2=O)cc1OC` [Compound 181127], the “C: Compound efficacy for NMNAT2 activation; increase in NMNAT2 luciferase activity” value is reported as “+ (“+” <20% increase in NMNAT2 luciferase activity.)”.
`O=C(CN1C(=O)c2cccc3cccc1c23)NCc1ccco1` [Compound 181104] was tested, and the “C: Compound efficacy for NMNAT2 activation; increase in NMNAT2 luciferase activity” value was “+ (“+” <20% increase in NMNAT2 luciferase activity.)”.
For `Cc1cc(C)n(CC(=O)NCc2ccccc2)c(=O)c1C#N` [Compound 181120], the “C: Compound efficacy for NMNAT2 activation; increase in NMNAT2 luciferase activity” value was “+ (“+” <20% increase in NMNAT2 luciferase activity.)”.
With `Cc1cc(C)n(CC(=O)NCc2ccc(F)cc2)c(=O)c1C#N` [Compound 181123] the “C: Compound efficacy for NMNAT2 activation; increase in NMNAT2 luciferase activity” value was “+ (“+” <20% increase in NMNAT2 luciferase activity.)”.
For `Cn1c(=O)c(=O)n(CC(=O)NCc2ccco2)c2ccccc21` [Compound 181136], the “C: Compound efficacy for NMNAT2 activation; increase in NMNAT2 luciferase activity” value was “+ (“+” <20% increase in NMNAT2 luciferase activity.)”.
`O=C(Cn1cc(C(=O)c2ccccc2)c2ccccc21)NCc1ccco1` [Compound 181106] was tested, and the “C: Compound efficacy for NMNAT2 activation; increase in NMNAT2 luciferase activity” value was “+++ (“+++” >100% increase in NMNAT2 luciferase activity.)”.
`COc1ccccc1CNC(=O)Cn1ccc2ccc(F)cc21` [Compound 181151] was tested, and the “C: Compound efficacy for NMNAT2 activation; increase in NMNAT2 luciferase activity” value was “+ (“+” <20% increase in NMNAT2 luciferase activity.)”.
With `CC(=O)c1c(C)n(CC(=O)NCc2ccco2)c2ccccc12` [Compound 181109] the “C: Compound efficacy for NMNAT2 activation; increase in NMNAT2 luciferase activity” value was “+ (“+” <20% increase in NMNAT2 luciferase activity.)”.
In the case of `O=C(Cn1c(-c2cccs2)cc2cc(F)ccc21)NCc1ccco1` [Compound 181118], the “C: Compound efficacy for NMNAT2 activation; increase in NMNAT2 luciferase activity” value is reported as “+ (“+” <20% increase in NMNAT2 luciferase activity.)”.
`O=C(Cn1ccc2ccccc21)NCc1ccc(F)cc1` [Compound 181148] was tested, and the “C: Compound efficacy for NMNAT2 activation; increase in NMNAT2 luciferase activity” value was “++ (“++” >20% and <100% increase in NMNAT2 luciferase activity.)”.
For `CCn1ccc2cc(CCC(=O)NCc3ccco3)ccc21` [Compound 181141], the “C: Compound efficacy for NMNAT2 activation; increase in NMNAT2 luciferase activity” value was “++ (“++” >20% and <100% increase in NMNAT2 luciferase activity.)”.
With `Cc1ccc(CNC(=O)Cn2c(C)cc(C)c(C#N)c2=O)cc1` [Compound 181121] the “C: Compound efficacy for NMNAT2 activation; increase in NMNAT2 luciferase activity” value was “+ (“+” <20% increase in NMNAT2 luciferase activity.)”.
In the case of `O=C(Cn1cc(C(=O)C(F)(F)F)c2ccccc21)NCc1ccco1` [Compound 181101], the “C: Compound efficacy for NMNAT2 activation; increase in NMNAT2 luciferase activity” value is reported as “+ (“+” <20% increase in NMNAT2 luciferase activity.)”.
With `Cc1cc(C)n(CC(=O)NCc2ccccc2Cl)c(=O)c1C#N` [Compound 181130] the “C: Compound efficacy for NMNAT2 activation; increase in NMNAT2 luciferase activity” value was “+ (“+” <20% increase in NMNAT2 luciferase activity.)”.
`COc1ccc(CNC(=O)Cn2c(C)cc(C)c(C#N)c2=O)cc1` [Compound 181124] was tested, and the “C: Compound efficacy for NMNAT2 activation; increase in NMNAT2 luciferase activity” value was “+ (“+” <20% increase in NMNAT2 luciferase activity.)”.
For `Cc1ccc(CNC(=O)c2ccc(NC(=O)Cn3c(C)cc(C)c(C#N)c3=O)cc2)o1` [Compound 181134], the “C: Compound efficacy for NMNAT2 activation; increase in NMNAT2 luciferase activity” value was “+ (“+” <20% increase in NMNAT2 luciferase activity.)”.
In the case of `CCn1c(=O)c(=O)n(CC(=O)NCc2ccc(C)o2)c2ccccc21` [Compound 181139], the “C: Compound efficacy for NMNAT2 activation; increase in NMNAT2 luciferase activity” value is reported as “+ (“+” <20% increase in NMNAT2 luciferase activity.)”.
With `CC(CCc1ccco1)NC(=O)Cn1ccc2ccc(Br)cc21` (centres unmarked) [Compound 181154] the “C: Compound efficacy for NMNAT2 activation; increase in NMNAT2 luciferase activity” value was “++ (“++” >20% and <100% increase in NMNAT2 luciferase activity.)”.
In the case of `O=C(Cn1cc(C(=O)C2CCCCC2)c2ccccc21)NCc1ccco1` [Compound 181107], the “C: Compound efficacy for NMNAT2 activation; increase in NMNAT2 luciferase activity” value is reported as “+++ (“+++” >100% increase in NMNAT2 luciferase activity.)”.
In the case of `O=C(Cn1cc(C(=O)C(F)(F)F)c2cc(Br)ccc21)NCc1ccco1` [Compound 181103], the “C: Compound efficacy for NMNAT2 activation; increase in NMNAT2 luciferase activity” value is reported as “+ (“+” <20% increase in NMNAT2 luciferase activity.)”.
In the case of `Cc1ccc(CNC(=O)Cn2c(-c3cccs3)cc3cc(F)ccc32)o1` [Compound 181119], the “C: Compound efficacy for NMNAT2 activation; increase in NMNAT2 luciferase activity” value is reported as “+ (“+” <20% increase in NMNAT2 luciferase activity.)”.
`Cc1cc2ccccc2c(=O)n1CC(=O)NCc1ccco1` [Compound 181112] was tested, and the “C: Compound efficacy for NMNAT2 activation; increase in NMNAT2 luciferase activity” value was “+ (“+” <20% increase in NMNAT2 luciferase activity.)”.
